# Laboratory results published in US20120010296A1, “TREATING VARIOUS DISORDERS WITH CATECHOL-O-METHYL-TRANSFERASE INHIBITORS” (priority 2009, published 2012).
# Columns and labels:
# Assay type in all cases: in vivo, human
# kleptomania = assay: Example 3: case report, treatment of kleptomania (K-SAS, stealing behavior); details: one patient
# Text: Patient was a married, college-educated person with no children. They presented for psychiatric evaluation for “out-of-control” shoplifting that had been going on since early adulthood. Although never arrested for their shoplifting, they reported stealing approximately 90% of the times when they went shopping. […] They denied wanting or needing the items and in fact usually discarded them in the trash when they returned home. They reported that when they initially stole items in early adulthood the act gave them a “rush” or a thrill. Over the years, they described the behavior as “automatic” and without awareness for the consequences.
# The diagnosis of kleptomania was confirmed using the Structured Clinical Interview for Kleptomania. Patient also underwent a comprehensive psychiatric evaluation using the Structured Clinical Interview for DSM-IV (SCID-I and SCID-II). […] Severity of kleptomania was assessed using the Kleptomania Symptom Assessment Scale (K-SAS) at baseline and periodically through […] follow-up. The K-SAS score at baseline was 28 (moderate severity).
# (§1) Over a period of two years, patient underwent serial trials of several medications. […] “I have gone to stores several times without stealing anything.” After 6 weeks, the benefit seemed to wane and their dose was increased to 100 mg po bid. […] They have been maintained on that dose for 5 months without stealing. They report mild urges to steal when in a store but feels able to control their behavior. Patient's K-SAS score has consistently been 6-8 over the last few months.
# pathological gambling [1] = assay: Example 1: open-label tolcapone study in pathological gambling (PG-YBOCS)
# Text: The effectiveness of COMT inhibitors to treat PG can be determined using known assessments, e.g., the Clinical Global Impression Scale (CGI), Yale Brown Obsessive Compulsive Scale Modified for Pathological Gambling (PG-YBOCS), the Gambling Symptom Assessment Scale (G-SAS), the Sheehan Disability Scale (SDS), the Hamilton Anxiety Rating Scale (HAM-A), the Hamilton Depression Rating Scale (HAM-D), the Perceived Stress Scale (PSS; used at baseline and study endpoint), and the Quality of Life Inventory (QOLI; used at baseline and study endpoint). In example 1, six subjects have been enrolled in a study to determine the effects of administration of the COMT inhibitor tolcapone on gambling. Subjects receive 100 mg-300 mg of tolcapone by mouth per day for 8 weeks, which can be administered either once per day for the 100 mg dose, or multiple (e.g., 3) times per day for higher doses (e.g., 300 mg dose). Five of the 6 (83%) subjects have “responded” (i.e., greater than 35% on the primary outcome measure, the PG-YBOCS) to tolcapone. In most open-label studies of pathological gambling, response rates are approximately 65%. Decrease in gambling symptoms was from a mean of 20.4 to 8.0 at endpoint using the PG-YBOCS. This compares to a mean decrease of 6 points on this same scale when used in treatment studies involving other medications. The mean effective dose was 140 mg/day.
# pathological gambling [2] = assay: Example 1 / Tolcapone Study: cognitive tasks (IED set shift, SST) before and after treatment
# Text: The cognitive tasks require subjects to disengage responding from the previously correct dimension in favor of responding to a novel dimension. Failure on the task may be due to the inability of the individual to disengage from a previously rewarding process thus perseverating on the incorrect response pattern.
# pathological gambling [3] = assay: Example 2: tolcapone study in pathological gambling, primary and secondary measures
# Text: The effectiveness of COMT inhibitors to treat PG can be determined using known assessments, e.g., the Clinical Global Impression Scale (CGI), Yale Brown Obsessive Compulsive Scale Modified for Pathological Gambling (PG-YBOCS), the Gambling Symptom Assessment Scale (G-SAS), the Sheehan Disability Scale (SDS), the Hamilton Anxiety Rating Scale (HAM-A), the Hamilton Depression Rating Scale (HAM-D), the Perceived Stress Scale (PSS; used at baseline and study endpoint), and the Quality of Life Inventory (QOLI; used at baseline and study endpoint). In Example 2, twelve subjects have been enrolled with four of these individuals currently receiving tolcapone and yet to complete the study. […] In most open-label studies of pathological gambling, response rates are approximately 60-65%. Decrease in gambling symptoms was from a mean of 20.4 to 9.25 at endpoint using the PG-YBOCS. This compares to a mean decrease of 6 points on this same scale when used in treatment studies involving other medications.
# [4] = test system: nicotine dependent problem gambling subjects; assay: Change in cigarette smoking in nicotine dependent problem gambling subjects taking tolcapone; details: 10-Week Endpoint (n = 6); baseline 25.8 ± 11.1
# pathological gambling [5] = assay: Example 2: performance on cognitive tasks (IDED, SST) in pathological gamblers treated with tolcapone
# Text: The cognitive tasks require subjects to disengage responding from the previously correct dimension in favor of responding to a novel dimension. Failure on the ED task may be due to the inability of the individual to disengage from a previously rewarding process thus perseverating on the incorrect response pattern.
# [6] = Example 3: laboratory testing of liver aminotransferases every two weeks; details: one patient
# Procedure: as §1
# [7] = test system: attention deficit disorder (ADD); assay: Example 4: case report, treatment of ADD; details: one patient
# Procedure: Patient was a married, person, currently in nursing school. They have had life-long difficulties with organizing tasks, following through on instructions and completing tasks. Learning in classes and performing school work has been extremely difficult. Patient would tell each and every teacher that they have attention deficit disorder (ADD), they are slow to understand and that they need more time to complete examinations. Patient has been taking methylphenidate ([…]) 10 mg twice a day to cope with these difficulties. […] Patient said “I was able to answer 12 out of 12 questions, that was the first time for me.” After one week, patient increased tolcapone does to 100 mg twice a day. […] They found themself organizing future tasks in orderly manner and also completing the tasks mush more efficiently, something they just have not been able to do prior to now. Their spouse noticed this and commented this to them. […] Patient is much satisfied with the results of the tolcapone treatment. Follow-up interview two weeks post tolcapone 100 mg twice a day: “I got over my classes at 3:[…]/ I stayed '[…] just fired off this assignment. I met all objectives. I got 15 out of 15 points. This has never happened to me before. Prior to tolcapone, I would scramble, hodge-podge, . . . I would just give up. The whole thing is getting better and better. I feel that I can organize things better now.” “Look what my teacher wrote, 'very well organized'.” 30 out of 30, 27 out of 27 points! “I never got these assignments done. I can't explain it but this is phenomenal.” “I am sleeping better now, my anxiety has gone down, I have more energy now.” This is a patient who had been on methylphenidate 10 mg twice a day.
smiles,measurement,setting,value
"CC1(C)O[C@@H]2[C@@H](CO[C@@]3(COS(N)(=O)=O)OC(C)(C)O[C@@H]23)O1 [Topiramate, topiramate]",K-SAS score (urges to steal),"kleptomania; monotherapy, 12 weeks at 150 mg/day, baseline 28",21
Cc1ccc(C(=O)c2cc(O)c(O)c([N+](=O)[O-])c2)cc1 [tolcapone],mean effective dose,"pathological gambling [1]; Example 1, pathological gambling",140 mg/day
same,"subjects who responded (greater than 35% on the primary outcome measure, the PG-YBOCS)","pathological gambling [1]; Example 1, 100 mg-300 mg per day by mouth for 8 weeks, five of the 6 subjects",83%
same,PG-YBOCS mean at endpoint (decrease in gambling symptoms),"pathological gambling [1]; Example 1, from a baseline mean of 20.4",8.0
same,"PG-YBOCS, Mean ± SD at EOS","pathological gambling [1]; whole group analysis, after treatment (EOS), baseline 21.5 + 3.11",10.25 ± 6.18
same,"IED Total errors (stage 6), ID shift, Mean ± SD at EOS","pathological gambling [2]; EOS, baseline 0.5 ± 1",0 ± 0
same,"SST Direction errors on stop and go trials, Mean ± SD at EOS","pathological gambling [2]; EOS, baseline 2.75 ± 4.27",6.5 ± 11.03
same,"IED Total errors (stage 8), ED shift, Mean ± SD at EOS","pathological gambling [2]; EOS, baseline 6.75 ± 5.91",3.5 ± 4.51
same,"IED Stages completed, Mean ± SD at EOS","pathological gambling [2]; EOS, baseline 9 ± 0",9 ± 0
same,"IED Total errors (adjusted), Mean ± SD at EOS","pathological gambling [2]; EOS, baseline 12.75 ± 6.5",17 ± 7.16
same,"IED Total errors, Mean ± SD at EOS","pathological gambling [2]; EOS, baseline 12.75 ± 6.5",17 ± 7.16
same,"SST Median correct RT on GO trials, Mean ± SD at EOS","pathological gambling [2]; EOS, baseline 530.5 ± 132.91",529 ± 155.66
same,extradimensional set shift task (cognitive measures),pathological gambling [2]; Example 1,significant improvement
same,mean effective dose,"pathological gambling [3]; Example 2, pathological gambling, compared to 600 mg/day used for Parkinson's",141 mg/day
same,PG-YBOCS mean at endpoint (decrease in gambling symptoms),"pathological gambling [3]; Example 2, from a baseline mean of 20.4",9.25
same,"subjects who responded (greater than 35% on the primary outcome measure, the PG-YBOCS)","pathological gambling [3]; Example 2, seven of 8 subjects who have completed the study",87.5%
same,"CGI-Improvement (Investigator), mean (SD) at endpoint",pathological gambling [3]; endpoint,1.88 (0.83)
same,"CGI-Improvement (Patient), mean (SD) at endpoint",pathological gambling [3]; endpoint,2.19 (1.13)
same,"Clinical Global Impression Severity, mean (SD) at endpoint","pathological gambling [3]; endpoint, baseline 4.38 (0.74), p-value 0.0098",3 (1.07)
same,"HAM-A, mean (SD) at endpoint","pathological gambling [3]; endpoint, baseline 8.88 (3.14), p-value 0.052",5.63 (2.97)
same,"HAM-D, mean (SD) at endpoint","pathological gambling [3]; endpoint, baseline 9 (2.67), p-value 0.033",5.63 (3.02)
same,"PG-YBOCS behavior Subscale score, mean (SD) at endpoint","pathological gambling [3]; endpoint, baseline 9.63 (3.2), p-value 0.0003",3.63 (3.96)
same,"PG-YBOCS urges/thought subscale score, mean (SD) at endpoint","pathological gambling [3]; endpoint, baseline 10.88 (2.23), p-value 0.0003",5.38 (2.33)
same,"Sheehan Disability Scale total score, mean (SD) at endpoint","pathological gambling [3]; endpoint, baseline 16.75 (6.84), p-value 0.003",5.38 (5.90)
same,"PG-YBOCS total score, mean (SD) at endpoint","pathological gambling [3]; endpoint, baseline 20.5 (3.38), p-value 0.0002",9.25 (5.3)
same,"G-SAS total score, mean (SD) at endpoint","pathological gambling [3]; endpoint, baseline 27.13 (7.54), p-value 0.045",18.63 (7.91)
same,Cigarettes smoked per day (mean ± SD),[4],3.3 ± 8.2
same,extradimensional set shift task (cognitive measures),"pathological gambling [5]; Example 2, neurocognitive results",significant improvement
same,SST directional errors at endpoint,"pathological gambling [5]; endpoint, baseline 2 ± 3.07",4.71 ± 8.24
same,IDED Stages completed at endpoint,"pathological gambling [5]; endpoint, baseline 8.5 ± 0.92",8.86 ± 0.38
same,IDED total errors (adjusted) at endpoint,"pathological gambling [5]; endpoint, baseline 26.38 ± 21.84",20.14 ± 11.77
same,SST SSRT at endpoint,"pathological gambling [5]; endpoint, baseline 149.8 ± 41.57",161.37 ± 29.11
same,SST median go reaction time at endpoint,"pathological gambling [5]; endpoint, baseline 470.5 ± 111.67, in ms (unit assumed)",476.64 ± 138.11
same,stealing behavior,"kleptomania; 100 mg po bid, after 3 weeks on the higher dose, maintained for 5 months without stealing",no stealing behavior
same,K-SAS score,"kleptomania; 100 mg po bid, over the last few months, baseline 28 (moderate severity)",6-8
same,stealing behavior,"kleptomania; 100 mg/day monotherapy, after 3 weeks",significant reductions in stealing behavior
same,changes in alanine aminotransferase or aspartate aminotranferase,[6],no changes
same,ADD symptoms reported by the patient,"[7]; 100 mg in the morning, added to methylphenidate 10 mg twice a day",improved sense of well-being
same,ADD symptoms reported by the patient,[7]; 100 mg twice a day,further improvement in their symptoms
same,side effects,[7]; 100 mg twice a day,no side effects
same,"attentional issues, compared with methylphenidate",[7]; chose to stay on tolcapone instead of methylphenidate,works better for their attentional issues
